This assay relates to C. difficile. Briefly: Addition of secondary bile acids to culture media, C. difficile growth. Conditions: bile acid added to culture media.

`C[C@H](CCC(=O)O)[C@H]1CC[C@H]2[C@@H]3CC[C@@H]4C[C@H](O)CC[C@]4(C)[C@H]3C[C@H](O)[C@]12C` [DCA, deoxycholic acid]: the “C. difficile growth inhibition in culture media” value is reported as “inhibits c. difficile growth”.

(Values after US12414969B2, “Methods and compositions for reducing clostridium difficile infection” (priority 2014, dated 2025).)
